In patent US10463671B2, “Combination therapy for treating cancer” (Epizyme, Inc., priority 2013, dated 2019):

How the values were obtained:
[1] = system: glucocorticoid signaling genes in OCI-LY19 cells; assay: RT2 Glucocorticoid Signaling PCR array; type: cell-based; conditions: compared to DMSO; OCI cell line; 4 days
Protocol: Gene expression was normalized to array's B2M and fold change compared to DMSO was calculated using the ΔΔCt method.

[2] = system: glucocorticoid signaling genes in SU-DHL10 cells; assay: RT2 Glucocorticoid Signaling PCR array; type: cell-based; design: IL10 Ct Values / TNF Ct Values: unit not given here; conditions: SUDHL10, 4 days

## CCN(c1cc(-c2ccc(CN3CCOCC3)cc2)cc(C(=O)NCc2c(C)cc(C)[nH]c2=O)c1C)C1CCOCC1 [Compound 44]
[1]
  ΔΔCT, ADARB1: −0.788
  ΔΔCT, ARID5B: 0.231
  ΔΔCT, PDCD7: 0.024
  ΔΔCT, SPHK1: 0.018
[2]
  ACTB Ct Values: 14.828
  ADARB1 Ct Values: 31.215
  AFF1 Ct Values: 29.849
  AK2 Ct Values: 20.974
  AMPD3 Ct Values: 27.654
  ANGPTL4 Ct Values: 32.107
  ANXA4 Ct Values: 24.961
  ARID5B Ct Values: 28.208
  ASPH Ct Values: 23.837
  ATF4 Ct Values: 20.607
  B2M Ct Values: 19.147
  BCL6 Ct Values: 22.639
  CEBPA Ct Values: 28.900
  CEBPB Ct Values: 26.624
  CREB1 Ct Values: 23.809
  CREB3 Ct Values: 26.452
  CREB3L4 Ct Values: 26.139
  CYB561 Ct Values: 37.004
  DDIT4 Ct Values: 26.109
  DUSP1 Ct Values: 31.300
  EHD3 Ct Values: 26.768
  FKBP5 Ct Values: 22.883
  FOSL2 Ct Values: 32.931
  GAPDH Ct Values: 17.793
  GDPD1 Ct Values: 30.943
  GOT1 Ct Values: 25.306
  H6PD Ct Values: 28.126
  HNRPLL Ct Values: 23.764
  HPRT1 Ct Values: 20.615
  IL1RN Ct Values: 32.182
  IL6R Ct Values: 33.807
  IL10 Ct Values: 32.505
  KLF9 Ct Values: 32.525
  KLF13 Ct Values: 24.536
  LOX Ct Values: 35.385
  MERTK Ct Values: 34.652
  MT2A Ct Values: 37.225
  NFKBIA Ct Values: 23.654
  NR3C1 Ct Values: 23.754
  PDCD7 Ct Values: 25.123
  PDP1 Ct Values: 26.175
  PER1 Ct Values: 27.710
  PER2 Ct Values: 24.780
  PIK3R1 Ct Values: 24.661
  PLEKHF1 Ct Values: 28.979
  POU2F1 Ct Values: 25.842
  POU2F2 Ct Values: 25.098
  RASA3 Ct Values: 24.277
  RGS2 Ct Values: 25.587
  RHOB Ct Values: 27.829
  RHOJ Ct Values: 36.530
  RPLP0 Ct Values: 16.821
  SESN1 Ct Values: 27.480
  SGK1 Ct Values: 25.358
  SLC10A6 Ct Values: 37.060
  SLC19A2 Ct Values: 30.597
  SLC22A5 Ct Values: 30.263
  SNTA1 Ct Values: 27.003
  SPHK1 Ct Values: 27.804
  SPSB1 Ct Values: 26.133
  STAT5A Ct Values: 25.275
  STAT5B Ct Values: 24.281
  TBL1XR1 Ct Values: 21.846
  TNF Ct Values: 23.725
  TNFAIP3 Ct Values: 27.677
  TSC22D3 Ct Values: 28.871
  USP2 Ct Values: 23.434
  USP54 Ct Values: 27.789
  VDR Ct Values: 29.514
  VLDLR Ct Values: 32.904
  ZFP36 Ct Values: 26.643
  ZHX3 Ct Values: 26.305
  ZNF2B1 Ct Values: 23.857
[2]; normalized to B2M
  ACTB ΔCT (B2M): −4.319
  ADARB1 ΔCT (B2M): 12.068
  AFF1 ΔCT (B2M): 10.702
  AK2 ΔCT (B2M): 1.827
  AMPD3 ΔCT (B2M): 8.507
  ANGPTL4 ΔCT (B2M): 12.960
  ANXA4 ΔCT (B2M): 5.814
  ARID5B ΔCT (B2M): 9.061
  ASPH ΔCT (B2M): 4.690
  ATF4 ΔCT (B2M): 1.460
  B2M ΔCT (B2M): 0.000
  BCL6 ΔCT (B2M): 3.492
  CEBPA ΔCT (B2M): 9.753
  CEBPB ΔCT (B2M): 7.477
  CREB1 ΔCT (B2M): 4.662
  CREB3L4 ΔCT (B2M): 6.992
  CREB3 ΔCT (B2M): 7.305
  CYB561 ΔCT (B2M): 17.857
  DDIT4 ΔCT (B2M): 6.962
  DUSP1 ΔCT (B2M): 12.153
  EHD3 ΔCT (B2M): 7.621
  FKBP5 ΔCT (B2M): 3.736
  FOSL2 ΔCT (B2M): 13.784
  GAPDH ΔCT (B2M): −1.354
  GDPD1 ΔCT (B2M): 11.796
  GOT1 ΔCT (B2M): 6.159
  H6PD ΔCT (B2M): 8.979
  HNRPLL ΔCT (B2M): 4.617
  HPRT1 ΔCT (B2M): 1.468
  IL1RN ΔCT (B2M): 13.035
  IL6R ΔCT (B2M): 14.660
  IL10 ΔCT (B2M): 13.358
  KLF9 ΔCT (B2M): 13.378
  KLF13 ΔCT (B2M): 5.389
  LOX ΔCT (B2M): 16.238
  MERTK ΔCT (B2M): 15.505
  MT2A ΔCT (B2M): 18.078
  NFKBIA ΔCT (B2M): 4.507
  NR3C1 ΔCT (B2M): 4.617
  PDCD7 ΔCT (B2M): 5.976
  PDP1 ΔCT (B2M): 7.028
  PER1 ΔCT (B2M): 8.563
  PER2 ΔCT (B2M): 5.633
  PIK3R1 ΔCT (B2M): 5.514
  PLEKHF1 ΔCT (B2M): 9.832
  POU2F1 ΔCT (B2M): 6.695
  POU2F2 ΔCT (B2M): 5.951
  RASA3 ΔCT (B2M): 5.130
  RGS2 ΔCT (B2M): 6.440
  RHOB ΔCT (B2M): 8.682
  RHOJ ΔCT (B2M): 17.383
  RPLP0 ΔCT (B2M): −2.326
  SESN1 ΔCT (B2M): 8.333
  SGK1 ΔCT (B2M): 6.211
  SLC10A6 ΔCT (B2M): 17.913
  SLC19A2 ΔCT (B2M): 11.450
  SLC22A5 ΔCT (B2M): 11.116
  SNTA1 ΔCT (B2M): 7.856
  SPHK1 ΔCT (B2M): 8.657
  SPSB1 ΔCT (B2M): 6.986
  STAT5A ΔCT (B2M): 6.128
  STAT5B ΔCT (B2M): 5.134
  TBL1XR1 ΔCT (B2M): 2.699
  TNF ΔCT (B2M): 4.578
  TNFAIP3 ΔCT (B2M): 8.530
  TSC22D3 ΔCT (B2M): 9.724
  USP2 ΔCT (B2M): 4.287
  USP54 ΔCT (B2M): 8.642
  VDR ΔCT (B2M): 10.367
  VLDLR ΔCT (B2M): 13.757
  ZFP36 ΔCT (B2M): 7.496
  ZHX3 ΔCT (B2M): 7.158
  ZNF2B1 ΔCT (B2M): 4.710
[2]; vs DMSO
  ARID5B ΔΔCT: 0.650
  EHD3 ΔΔCT: −0.885
  FKBP5 ΔΔCT: 0.042
  PIK3R1 ΔΔCT: 0.431
  SLC19A2 ΔΔCT: −1.143
  USP54 ΔΔCT: −0.064
